Test results reported in patent publication US10988524B2, “Modified relaxin B chain peptides and their therapeutic use” (priority 2018, dated 2021).
Non-standard residues stand in square brackets, D forms with d. Residues, ends and D or L forms follow the SMILES beside them. Nle = CCCC[C@H](N)C(=O)O; Aib = CC(C)(N)C(=O)O

Target: T1, RXFP1 (Homo sapiens, UniProt Q9HBX9)
T1 sequence (Q9HBX9 1-757): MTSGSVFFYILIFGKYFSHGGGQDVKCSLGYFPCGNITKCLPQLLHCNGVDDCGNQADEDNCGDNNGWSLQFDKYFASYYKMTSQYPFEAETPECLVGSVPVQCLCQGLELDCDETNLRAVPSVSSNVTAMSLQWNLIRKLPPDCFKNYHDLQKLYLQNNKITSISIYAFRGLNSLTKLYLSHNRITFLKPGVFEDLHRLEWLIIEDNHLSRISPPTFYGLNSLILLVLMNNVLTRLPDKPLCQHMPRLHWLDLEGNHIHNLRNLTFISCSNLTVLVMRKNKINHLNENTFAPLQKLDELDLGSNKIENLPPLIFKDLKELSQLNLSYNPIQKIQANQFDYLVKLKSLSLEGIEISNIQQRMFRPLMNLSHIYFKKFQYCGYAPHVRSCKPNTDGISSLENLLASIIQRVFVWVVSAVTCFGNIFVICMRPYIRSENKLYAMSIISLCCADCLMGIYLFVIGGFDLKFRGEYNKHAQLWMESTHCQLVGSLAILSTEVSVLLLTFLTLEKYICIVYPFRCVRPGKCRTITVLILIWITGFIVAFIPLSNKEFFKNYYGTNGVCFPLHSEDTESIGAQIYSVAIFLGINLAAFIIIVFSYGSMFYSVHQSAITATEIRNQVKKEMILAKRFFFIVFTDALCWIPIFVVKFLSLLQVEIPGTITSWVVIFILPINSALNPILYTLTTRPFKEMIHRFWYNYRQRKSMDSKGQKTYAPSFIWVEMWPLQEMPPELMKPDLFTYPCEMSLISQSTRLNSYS
Assay: OVCAR5 cAMP assay (RXFP1 agonist activity, HTRF)
Settings: OVCAR-5, read-out: cAMP assay in OVCAR 5 cells Emax, maximal intracellular cAMP relative to H2-relaxin in the same test occasion

SMILES	Emax
CCCC[C@H](NC(=O)CNC(=O)[C@H](CCC(=O)O)NC(=O)C(C)(C)NC(=O)C(C)(C)NC(=O)[C@@H](NC(=O)[C@H](CCC(N)=O)NC(=O)[C@H](C)NC(=O)[C@H](CCCNC(=N)N)NC(=O)[C@@H](NC(=O)[C@H](CCCCN)NC(=O)[C@H](CCC(=O)O)NC(=O)[C@H](CCCNC(=N)N)NC(=O)CNC(=O)[C@H](CCC(=O)O)NC(=O)[C@H](CC(C)C)NC(C)=O)C(C)C)[C@@H](C)CC)C(=O)N[C@@H](CO)C(=O)N[C@H](C(=O)N[C@@H](Cc1c[nH]c2ccccc12)C(=O)N[C@@H](C)C(=O)NC(C)(C)C(=O)N[C@@H](CCCNC(=N)N)C(=O)N[C@@H](CCCCN)C(=O)N[C@@H](CCCCN)C(N)=O)[C@@H](C)O [compound 22] (Ac-LEGREKVRAQI[Aib][Aib]EG[Nle]STWA[Aib]RKK-NH2)	102%
CC[C@H](C)[C@H](NC(=O)[C@H](C)NC(=O)[C@H](C)NC(=O)[C@H](CCCNC(=N)N)NC(=O)[C@@H](NC(=O)[C@H](CCCCN)NC(=O)[C@H](CCC(=O)O)NC(=O)[C@H](CCCNC(=N)N)NC(=O)CNC(=O)[C@H](CCC(=O)O)NC(=O)[C@H](CC(C)C)NC(C)=O)C(C)C)C(=O)NC(C)(C)C(=O)NC(C)(C)C(=O)N[C@@H](CCC(=O)O)C(=O)NCC(=O)N[C@@H](CCSC)C(=O)N[C@@H](CO)C(=O)N[C@H](C(=O)N[C@@H](Cc1c[nH]c2ccccc12)C(=O)N[C@@H](CO)C(=O)N[C@@H](CCCCN)C(=O)N[C@@H](CCCNC(=N)N)C(=O)N[C@@H](CCCCN)C(=O)N[C@@H](CCCCN)C(N)=O)[C@@H](C)O [compound 16] (Ac-LEGREKVRAAI[Aib][Aib]EGMSTWSKRKK-NH2)	101%
CC[C@H](C)[C@H](NC(=O)[C@H](CCC(N)=O)NC(=O)[C@H](C)NC(=O)[C@H](CCCNC(=N)N)NC(=O)[C@@H](NC(=O)[C@H](CCCCN)NC(=O)[C@H](CCC(=O)O)NC(=O)[C@H](CCCNC(=N)N)NC(=O)CNC(=O)[C@H](CCC(=O)O)NC(=O)[C@H](CC(C)C)NC(C)=O)C(C)C)C(=O)NC(C)(C)C(=O)NC(C)(C)C(=O)N[C@@H](CCC(=O)O)C(=O)NCC(=O)N[C@@H](CCSC)C(=O)N[C@@H](CO)C(=O)N[C@H](C(=O)N[C@@H](Cc1c[nH]c2ccccc12)C(=O)N[C@@H](CO)C(=O)N[C@@H](CCCCN)C(=O)N[C@@H](CCCNC(=N)N)C(=O)N[C@@H](CCCCN)C(=O)N[C@@H](CCCCN)C(N)=O)[C@@H](C)O [compound 10] (Ac-LEGREKVRAQI[Aib][Aib]EGMSTWSKRKK-NH2)	103%

The next lines start with the values.

Emax	SMILES
101%	CCCC[C@H](NC(=O)CNC(=O)[C@H](CCC(=O)O)NC(=O)C(C)(C)NC(=O)C(C)(C)NC(=O)[C@@H](NC(=O)[C@H](CCC(N)=O)NC(=O)[C@H](C)NC(=O)[C@H](CCCNC(=N)N)NC(=O)[C@@H](NC(=O)[C@H](CCCCN)NC(=O)[C@H](CCC(=O)O)NC(=O)[C@H](CCCNC(=N)N)NC(=O)CNC(=O)[C@H](CCC(=O)O)NC(=O)[C@H](CC(C)C)NC(C)=O)C(C)C)[C@@H](C)CC)C(=O)N[C@@H](CO)C(=O)N[C@H](C(=O)N[C@@H](Cc1c[nH]c2ccccc12)C(=O)N[C@@H](CO)C(=O)NC(C)(C)C(=O)N[C@@H](CCCNC(=N)N)C(=O)N[C@@H](CCCCN)C(N)=O)[C@@H](C)O [compound 44] (Ac-LEGREKVRAQI[Aib][Aib]EG[Nle]STWS[Aib]RK-NH2)
96%	CCCC[C@H](NC(=O)CNC(=O)[C@H](CCC(=O)O)NC(=O)C(C)(C)NC(=O)C(C)(C)NC(=O)[C@@H](NC(=O)[C@H](CCCCNC(C)=O)NC(=O)[C@H](C)NC(=O)[C@H](CCCNC(=N)N)NC(=O)[C@@H](NC(=O)[C@H](CCCCN)NC(=O)[C@H](CCC(=O)O)NC(=O)[C@H](CCCNC(=N)N)NC(=O)CNC(=O)[C@H](CCC(=O)O)NC(=O)[C@H](CC(C)C)NC(C)=O)C(C)C)[C@@H](C)CC)C(=O)N[C@@H](CO)C(=O)N[C@H](C(=O)N[C@@H](Cc1c[nH]c2ccccc12)C(=O)N[C@@H](CO)C(=O)NC(C)(C)C(=O)N[C@@H](CCCNC(=N)N)C(=O)N[C@@H](CCCCN)C(=O)N[C@@H](CCC(N)=O)C(N)=O)[C@@H](C)O [compound 31] (Ac-LEGREKVRAK(Ac)I[Aib][Aib]EG[Nle]STWS[Aib]RKQ-NH2)
100%	CCCC[C@H](NC(=O)CNC(=O)[C@H](CCC(=O)O)NC(=O)C(C)(C)NC(=O)C(C)(C)NC(=O)[C@@H](NC(=O)[C@H](CCCCNC(C)=O)NC(=O)[C@H](C)NC(=O)[C@H](CCCNC(=N)N)NC(=O)[C@@H](NC(=O)[C@H](CCCCN)NC(=O)[C@H](CCC(=O)O)NC(=O)[C@H](CCCNC(=N)N)NC(=O)CNC(=O)[C@H](CCC(=O)O)NC(=O)[C@H](CC(C)C)NC(C)=O)C(C)C)[C@@H](C)CC)C(=O)N[C@@H](CO)C(=O)N[C@H](C(=O)N[C@@H](Cc1c[nH]c2ccccc12)C(=O)N[C@@H](CO)C(=O)N[C@@H](CCCCNC(C)=O)C(=O)N[C@@H](CCCNC(=N)N)C(=O)N[C@@H](CCCCN)C(=O)N[C@@H](CCCCN)C(N)=O)[C@@H](C)O [compound 25] (Ac-LEGREKVRAK(Ac)I[Aib][Aib]EG[Nle]STWSK(Ac)RKK-NH2)

Same assay, conditions: cAMP assay in OVCAR 5 cells EC50 (nM), OVCAR5 cells expressing endogenous RXFP1; cAMP by HTRF; 30 min at 37° C.; 1 mM IBMX

EC50	SMILES
≤ 5 nM	CC[C@H](C)[C@H](NC(=O)[C@H](C)NC(=O)[C@H](C)NC(=O)[C@H](CCCNC(=N)N)NC(=O)[C@@H](NC(=O)[C@H](CCCCN)NC(=O)[C@H](CCC(=O)O)NC(=O)[C@H](CCCNC(=N)N)NC(=O)CNC(=O)[C@H](CCC(=O)O)NC(=O)[C@H](CC(C)C)NC(C)=O)C(C)C)C(=O)NC(C)(C)C(=O)NC(C)(C)C(=O)N[C@@H](CCC(=O)O)C(=O)NCC(=O)N[C@@H](CCSC)C(=O)N[C@@H](CO)C(=O)N[C@H](C(=O)N[C@@H](Cc1c[nH]c2ccccc12)C(=O)N[C@@H](CO)C(=O)N[C@@H](CCCCN)C(=O)N[C@@H](CCCNC(=N)N)C(=O)N[C@@H](CCCCN)C(=O)N[C@@H](CCCCN)C(N)=O)[C@@H](C)O [compound 16] (Ac-LEGREKVRAAI[Aib][Aib]EGMSTWSKRKK-NH2)
≤ 5 nM	CCCC[C@H](NC(=O)CNC(=O)[C@H](CCC(=O)O)NC(=O)C(C)(C)NC(=O)C(C)(C)NC(=O)[C@@H](NC(=O)[C@H](CCCCNC(C)=O)NC(=O)[C@H](C)NC(=O)[C@H](CCCNC(=N)N)NC(=O)[C@@H](NC(=O)[C@H](CCCCN)NC(=O)[C@H](CCC(=O)O)NC(=O)[C@H](CCCNC(=N)N)NC(=O)CNC(=O)[C@H](CCC(=O)O)NC(=O)[C@H](CC(C)C)NC(C)=O)C(C)C)[C@@H](C)CC)C(=O)N[C@@H](CO)C(=O)N[C@H](C(=O)N[C@@H](Cc1c[nH]c2ccccc12)C(=O)N[C@@H](CO)C(=O)N[C@@H](CCCCNC(C)=O)C(=O)N[C@@H](CCCNC(=N)N)C(=O)N[C@@H](CCCCN)C(=O)N[C@@H](CCCCN)C(N)=O)[C@@H](C)O [compound 25] (Ac-LEGREKVRAK(Ac)I[Aib][Aib]EG[Nle]STWSK(Ac)RKK-NH2)
